Test results taken from patent publication US11439615B2, “Lipoxin and lipoxin analogue mediated neuroprotection and treatments” (University Health Network, priority 2017, dated 2022).

Assays:
primary cortical neurons = experiment: Primary cortical neurons under paraquat oxidative stress, neuron number; assay type: cell-based; conditions: n=5
Description: Quantification of neuron number following oxidative stress from the redox cycling compound paraquat in primary cortical neurons.

[1] = tested on: retinal ganglion cell neurons (RGCs); experiment: Mouse acute retinal insult model (intravitreal kainic acid), RGC survival / GCL apoptosis; assay type: in vivo; conditions: 2 μl of 10 μM intravitreally one hour prior to retinal KA insult; RBPMS counts
Protocol: Male C57BLL/6 mice, 4-6 weeks of age, were purchased from Taconic or Jackson labs. All experimental protocols were approved by the UHN and UC Berkeley ACUC in accordance with applicable regulations. Mice were anesthetized by intraperitoneal injection of ketamine/xylazine. Intravitreal injections with 10 mM kainic acid (KA) were performed as previously described (45). Briefly, a 30-gauge needle was inserted tangentially into the vitreous and replaced with a Hamilton syringe to inject a volume of 2 μL, followed by application of ophthalmic antibiotic ointment (BNP, Vetoquinol). In some experiments, 10× concentrated ACM or test compounds were injected intravitreally one hour prior to the KA injection in concentrations as follows: LXA4 and LXB4 at 10 μM, Zileuton at 2 μg/ul, and WRW4 at 15 μM, all dissolved in PBS. Mice were euthanized by CO2 asphyxiation 18 hours post KA treatment and the eyes fixed in 4% paraformaldehyde. In all experiments n refers to the number of animals tested.
To quantify the extent of apoptosis, a well-established method was used to count the number of TUNEL-positive nuclei in the ganglion cell layer (GCL) and expressed it as a fraction of the total GCL nuclei (50-54). TUNEL labeling was performed according to the manufacturer's instructions (DeadEnd; Promega). Briefly, cryostat sections were fixed with 4% PFA for 5 minutes and washed in PBS. Equilibration buffer was added, and rTdT reaction mix was applied to each slide and incubated at 37° C. for 60 min. Following the rTdT reaction, slides were washed in 2×SSC and PBS and finally mounted with glycerol-based medium. For RGC survival, RBPMS-positive cells in the GCL were counted and expressed as a fraction of GCL nuclei. For each eye, at least five central retinal sections were analyzed at the level of the optic nerve stretching to each ora serrata, and the results averaged, as previously described (42).
In order to test the influence of the transplanted cells on inner retinal pathology, RA's were transplanted as above. After 16 days retinas were challenged with an acute metabolic injury by injection of kainic acid (KA). […]
Retinal astrocyte neuroprotection is mediated through secreted factors that include a small molecule component enriched in LXA4 and LXB4. […] This time, survival of RGCs was specifically assessed by probing for the selective marker RBPMS, along with complementary TUNEL staining, and quantified as previously. As expected, extensive RGC loss was detected in KA challenged eyes injected with cell-free control media incubated under the same conditions as ACM (FIG. 2A). […]

primary RGCs = experiment: Primary RGCs under serum deprivation, cell and neurite survival (β3-tubulin); assay type: cell-based, rat; conditions: 1 μM, 48 hours of serum and supplement deprivation
Protocol: For astrocytes: Primary mature retinal astrocytes (RA) were isolated and cultured as previously described (46). Briefly, eyes were dissected out of adult Wistar rats and placed in ice-cold MEM-H17 media. Isolated retinas were digested by shaking in MEM-H17 containing papain and DNAse, followed by trituration to disperse cell-aggregates. When cultures reached confluence, the cells were placed on a rotating shaker for 6-8 hours to remove microglia and then re-plated. A glial-specific expression profile was confirmed by probing the cultures with a panel of glia microglia and neuronal markers (44). For RGCs: RGCs were purified using magnetic MicroBeads (Miltenyi Biotec, Germany) according to the manufacturer's protocol. Briefly; retinal cell suspensions were prepared from 8-10 day old rats and incubated with CD90.1 microbeads, and then carefully washed with DPBS/BSA buffer. The suspension was centrifuged at 130×g and the supernatant aspirated. Cells were then incubated with biotinylated depletion antibodies against microglia and endothelial cells. The labeled cell suspension was then incubated with magnetic Anti-Biotin MACSiBead™ Particles, and placed in a weak magnetic field. The pre-enriched cell suspension was centrifuged, and resuspended in fresh DPBS/BSA buffer and applied to a MACs MS separation column in the presence of a strong magnetic field to select for CD90.1-bound RGCs. To increase RGC purity, the eluted fraction was enriched over a second column. Purified RGCs were eluted and plated on poly-D-lysine coated dishes. The cells were cultured in Neurobasal-A media (Gibco) supplemented with 2% calf serum, B27, L-glutamine, BDNF, CNTF, forskolin and pen/strep.
To further confirm direct lipoxin activity in primary neurons, the ability of LXA4 or LXB4 to protect primary RGCs was tested. RGCs were isolated by immunopanning according to established methods. The cells were subjected to serum deprivation (SD), and then stained for β3-tubulin to quantify cell and neurite survival. Under normal serum, the RGCs extended an extensive network of neurites. […]

[2] = tested on: retinal ganglion cell (RGC); experiment: Mouse chronic glaucoma model (circumlimbal suture ocular hypertension); assay type: in vivo; conditions: 0.1 μg/μL locally and systemically every other day from week 5, n=10; for loss of RGC (RBPMS flatmount counts): end of 12 weeks; for reduction of RGC function (pSTR) / reduction of retinal nerve fiber layer (RNFL) thickness: week 12
Protocol: LXA4 and LXB4 treatment were assessed and found to be efficacious in a mouse chronic glaucoma model. Chronic ocular hypertension was induced in weaned male C57BL/6 mice using a monocular circumlimbal suture. From week 5, they were treated with either PBS vehicle, LXA4 or LXB4 (0.1 μg/μL, locally and systemically, every other day) (shaded areas). Retinal function (electroretinogram) and structure (optical coherence tomography) were measured weekly in all groups for 12 weeks. At the end of 12 weeks, animals were euthanized and retinal ganglion cell (RGC) counts were analyzed on retinal flatmounts by RBPMS immunostaining. […] (n=10 per group, bars represent S.E.M.).

HT22 cells = experiment: Mitosox mitochondrial oxidative stress in glutamate challenged HT22 cells; assay type: cell-based; conditions: 1 μM, HT22 cells challenged with glutamate, vs vehicle
Protocol: HT22 cells challenged with glutamate were then assayed for mitochondrial oxidative stress using the Mitosox reagent, in combination with 1 μM LXA4, LXB4, and the LXA4 receptor ALX/FPR2 agonists Quinc-1 and Mmk-1.

| SMILES | neuron number following oxidative stress from paraquat (primary cortical neurons) | increase of RGC survival compared to vehicle control [1] [%] | neuron survival following serum deprivation (primary RGCs) | loss of RGC (RBPMS flatmount counts) [2] [%] | reduction of RGC function (pSTR) [2] [%] | reduction of retinal nerve fiber layer (RNFL) thickness [2] [%] | mitochondrial oxidative stress (Mitosox) (HT22 cells) | neurite degeneration following serum deprivation (intact neurite ratio) (primary RGCs) |
| --- | --- | --- | --- | --- | --- | --- | --- | --- |
| CCCCC[C@H](O)/C=C/C=C\C=C\C=C\[C@@H](O)[C@@H](O)CCCC(=O)O [LXA4, 5S,6R,15S-trihydroxy-7E,9E,11Z,13E-eicosatetraenoic acid] | have activities | 37 | significant rescue | −14.1±1.0 | −24.0±1.3 | −23.8±1.6 | reduce mitochondrial oxidative stress |  |
| CCCCC[C@H](O)[C@H](O)/C=C/C=C/C=C\C=C\[C@@H](O)CCCC(=O)O [LXB4, 5S,14R,15S-trihydroxy-6E,8Z,10E,12E-eicosatetraenoic acid] | have activities | 50 | significant rescue | −12.2±0.9 | −20.9±1.0 | −20.9±1.0 | reduce mitochondrial oxidative stress | strongly rescued |
